Measurements from ChEMBL document CHEMBL1201862, “PubChem BioAssay data set” (2004).
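Test compounds were applied to cells in 96-well plates for 48 hours at 5 doses. Here, GI50 denotes the concentration required for 50% inhibition of growth.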 The source made the active and inactive calls. Rule as the data show it: active = GI50 up to about 1.1 µM and inactive = higher.

Experiments:
Experiment in all cases: DTP human tumour cell line panel, 48 h
[1] = test system: RPMI-8226
[2] = test system: NCI-H226
[3] = test system: A498
[4] = test system: NCI-H460
[5] = test system: SF-268
[6] = test system: SK-OV-3
[7] = test system: SN12C
[8] = test system: UO-31
[9] = test system: PC-3
[10] = test system: ACHN
[11] = test system: MDA-MB-435
[12] = test system: HT-29
[13] = test system: MCF7
[14] = test system: TK-10
[15] = test system: OVCAR-5
[16] = test system: UACC-62
[17] = test system: SK-MEL-5
[18] = test system: Hs-578T
[19] = test system: CCRF-CEM
[20] = test system: HCT-116

Structure (SMILES)	GI50 [1]	GI50 [2]	GI50 [3]	GI50 [4]	GI50 [5]	GI50 [6]	GI50 [7]	GI50 [8]	GI50 [9]	GI50 [10]	GI50 [11]	GI50 [12]	GI50 [13]	GI50 [14]	GI50 [15]	GI50 [16]	GI50 [17]	GI50 [18]	GI50 [19]	GI50 [20]
S=C1SCN(C2CCCCCCCCCCC2)CN1C1CCCCCCCCCCC1	47.5 µM (inactive)	> 100 µM (inactive)	> 100 µM (inactive)	> 100 µM (inactive)	> 100 µM (inactive)	> 100 µM (inactive)	> 100 µM (inactive)	> 100 µM (inactive)	> 100 µM (inactive)	> 100 µM (inactive)	42.2 µM (inactive)	> 100 µM (inactive)	66.8 µM (inactive)	> 100 µM (inactive)	> 100 µM (inactive)	97.9 µM (inactive)	> 100 µM (inactive)	> 100 µM (inactive)	34.4 µM (inactive)	> 100 µM (inactive)
CC(C)Oc1cc(O)c2c(c1)OCC=C2CCC(=O)O	24.4 µM (inactive)	15.5 µM (inactive)	21.4 µM (inactive)	33 µM (inactive)	40.6 µM (inactive)	49 µM (inactive)	21.3 µM (inactive)	24.1 µM (inactive)	54.6 µM (inactive)	22.1 µM (inactive)	23.8 µM (inactive)	19.9 µM (inactive)	13.9 µM (inactive)	20.3 µM (inactive)	31.8 µM (inactive)	26.9 µM (inactive)	18.4 µM (inactive)	42.2 µM (inactive)	22.8 µM (inactive)	20.4 µM (inactive)
CC(=O)N(C(=O)CC(=O)N1N=C(c2ccccc2)C(/N=N/c2ccccc2[N+](=O)[O-])C1=O)c1ccc(Cl)cc1 (stereo not given)	> 10 µM (inactive)	> 10 µM (inactive)	> 10 µM (inactive)	> 10 µM (inactive)	> 10 µM (inactive)	> 10 µM (inactive)	> 10 µM (inactive)	> 10 µM (inactive)	> 10 µM (inactive)	> 10 µM (inactive)	> 10 µM (inactive)	> 10 µM (inactive)	> 10 µM (inactive)	> 10 µM (inactive)	> 10 µM (inactive)	> 10 µM (inactive)	> 10 µM (inactive)	> 10 µM (inactive)	> 10 µM (inactive)	> 10 µM (inactive)
c1ccc(-c2cc(-c3cc(-c4ccccc4)no3)on2)cc1	> 100 µM (inactive)	71 µM (inactive)	> 100 µM (inactive)	45.1 µM (inactive)	66.1 µM (inactive)	28.6 µM (inactive)	42.5 µM (inactive)	> 100 µM (inactive)	> 100 µM (inactive)	29.3 µM (inactive)	> 100 µM (inactive)	> 100 µM (inactive)	> 100 µM (inactive)	> 100 µM (inactive)	> 100 µM (inactive)	> 100 µM (inactive)	> 100 µM (inactive)	47.6 µM (inactive)	27.4 µM (inactive)	55.8 µM (inactive)
O=C(NCCCNCCCNC(=O)c1cc(-c2ccccc2)nc2ccccc12)c1cc(-c2ccccc2)nc2ccccc12	1.72 µM (inactive)	1.69 µM (inactive)	1.93 µM (inactive)	1.75 µM (inactive)	1.83 µM (inactive)	2.21 µM (inactive)	1.84 µM (inactive)	1.83 µM (inactive)	1.6 µM (inactive)	2.12 µM (inactive)	1.64 µM (inactive)	1.75 µM (inactive)	1.66 µM (inactive)	1.91 µM (inactive)	1.87 µM (inactive)	1.93 µM (inactive)	1.78 µM (inactive)	2.35 µM (inactive)	1.63 µM (inactive)	1.73 µM (inactive)
CCCCn1cc(C(=O)O)c(=O)c2c3sccc3ccc21	> 100 µM (inactive)	> 100 µM (inactive)	> 100 µM (inactive)	> 100 µM (inactive)	> 100 µM (inactive)	> 100 µM (inactive)	> 100 µM (inactive)	20 µM (inactive)	> 100 µM (inactive)	> 100 µM (inactive)	> 100 µM (inactive)	> 100 µM (inactive)	> 100 µM (inactive)	> 100 µM (inactive)	> 100 µM (inactive)	> 100 µM (inactive)	> 100 µM (inactive)	> 100 µM (inactive)	> 100 µM (inactive)	> 100 µM (inactive)
COC(=O)C1=C(OC(=O)/C(=C/c2ccccc2)c2ccc([N+](=O)[O-])cc2)C(C(=O)OC)[C@@]2(O)[C@@H](C(=O)OC)[C@H](C)C[C@@H]1[C@@H]2C(=O)OC (stereo not given in full)	3.71 µM (inactive)	> 100 µM (inactive)	> 100 µM (inactive)	> 100 µM (inactive)	> 100 µM (inactive)	> 100 µM (inactive)	> 100 µM (inactive)	> 100 µM (inactive)	> 100 µM (inactive)	> 100 µM (inactive)	> 100 µM (inactive)	> 100 µM (inactive)	> 100 µM (inactive)	> 100 µM (inactive)	> 100 µM (inactive)	> 100 µM (inactive)	> 100 µM (inactive)	> 100 µM (inactive)	12.9 µM (inactive)	> 100 µM (inactive)
O=c1[nH]c(=O)n(C2CC(O)C(CS)O2)cc1F (stereo not given)	67 µM (inactive)	> 100 µM (inactive)	26.6 µM (inactive)	6.87 µM (inactive)	20.8 µM (inactive)	> 100 µM (inactive)	80.5 µM (inactive)	60.4 µM (inactive)	81.3 µM (inactive)	21.4 µM (inactive)	> 92.7 µM (inactive)	66.1 µM (inactive)	8.38 µM (inactive)	83.2 µM (inactive)	> 61.9 µM (inactive)	65.2 µM (inactive)	70.1 µM (inactive)	> 100 µM (inactive)	30.5 µM (inactive)	56.6 µM (inactive)
COc1ccc(C(c2ccc(OC)cc2)N2C(=O)CCC2C(=O)O)cc1 (stereo not given)	> 100 µM (inactive)	> 100 µM (inactive)	> 100 µM (inactive)	> 100 µM (inactive)	> 100 µM (inactive)	> 100 µM (inactive)	> 100 µM (inactive)	> 100 µM (inactive)	> 100 µM (inactive)	> 100 µM (inactive)	> 100 µM (inactive)	> 100 µM (inactive)	> 100 µM (inactive)	> 100 µM (inactive)	> 100 µM (inactive)	> 100 µM (inactive)	> 100 µM (inactive)	> 100 µM (inactive)	> 100 µM (inactive)	> 100 µM (inactive)
CCOC(=O)C1(C(=O)OCC)C[C@H]2CON=C2[C@@H]1c1ccc(C(F)(F)F)cc1	26.5 µM (inactive)	34.9 µM (inactive)	53.1 µM (inactive)	42.9 µM (inactive)	> 100 µM (inactive)	57.8 µM (inactive)	94.8 µM (inactive)	14.2 µM (inactive)	42.9 µM (inactive)	19.1 µM (inactive)	38.6 µM (inactive)	32 µM (inactive)	35.9 µM (inactive)	67 µM (inactive)	72.6 µM (inactive)	96.2 µM (inactive)	30.6 µM (inactive)	98.6 µM (inactive)	7.96 µM (inactive)	29.6 µM (inactive)
COc1cc2c(cc1OC)-c1cc3cc(OC)c(OC)cc3c(C)[n+]1CC2.O=C([O-])CS(=O)(=O)O	> 100 µM (inactive)	> 100 µM (inactive)	> 100 µM (inactive)	13.8 µM (inactive)	0.975 µM (active)	79.1 µM (inactive)	37.6 µM (inactive)	> 100 µM (inactive)	15.9 µM (inactive)	> 100 µM (inactive)	76.4 µM (inactive)	> 100 µM (inactive)	46.3 µM (inactive)	> 100 µM (inactive)	> 100 µM (inactive)	23.2 µM (inactive)	37.8 µM (inactive)	> 100 µM (inactive)	6.49 µM (inactive)	73.5 µM (inactive)
CCCCCCCCOP(=O)(O)OP(=O)(O)OCC1OC(n2ccc(N)nc2=O)C(O)C1O (stereo not given)	> 100 µM (inactive)	> 100 µM (inactive)	> 100 µM (inactive)	> 100 µM (inactive)	> 100 µM (inactive)	> 100 µM (inactive)	> 100 µM (inactive)	> 100 µM (inactive)	> 100 µM (inactive)	> 100 µM (inactive)	> 100 µM (inactive)	> 100 µM (inactive)	> 100 µM (inactive)	> 100 µM (inactive)	> 100 µM (inactive)	> 100 µM (inactive)	> 100 µM (inactive)	> 100 µM (inactive)	> 100 µM (inactive)	> 100 µM (inactive)
CCSc1nc(COC(=O)NC)c(COC(=O)NC)n1C	> 97.9 µM (inactive)	> 100 µM (inactive)	> 67.9 µM (inactive)	73.1 µM (inactive)	70.1 µM (inactive)	50.7 µM (inactive)	> 100 µM (inactive)	> 95.9 µM (inactive)	> 82 µM (inactive)	16.6 µM (inactive)	> 100 µM (inactive)	> 100 µM (inactive)	> 70.5 µM (inactive)	> 100 µM (inactive)	> 100 µM (inactive)	34.1 µM (inactive)	> 100 µM (inactive)	> 100 µM (inactive)	54 µM (inactive)	> 100 µM (inactive)
